Earlier results in patent US20230189810A1, “AQUEOUS COMPOSITION OF DITHI[…]” (priority 2020, published 2023).

Settings: water, 20° C.

For mancozeb, the solubility is given as “about 6.2 mg per liter”.
